Assay results taken from article PMC11784839, “Monoaminergic neurotransmitters are bimodal effectors of tau aggregation” (Science Advances, 2025).

Target: tau (Homo sapiens, UniProt P10636)
Test: MCE Phenols Library screening, tau biosensor cell seeding assay (AvZ)
Assay type: cell-based
Conditions: for Z repl 1 / Z Repl 2: Z score; for Z repl 1 / raw data 1: replicate 1; for Z Repl 2 / raw data 2: replicate 2; for AvZ (average z score of seeding, SDs from the mean level of seeding): 10 μM phenol in cell cultures, AD brain homogenate preincubated 16 hours, two biological replicates, positive = catalyzes seeding, negative = inhibits
[1] = average Z score of two replicates, Phenols Library screen
[2] = average Z score of the two replicates, MCE Phenols Library screen
[3] = average puncta of the two replicates
[4] = average Z score of the two replicates, tau seeding

tau, sequence (P10636 623-695 limits assumed): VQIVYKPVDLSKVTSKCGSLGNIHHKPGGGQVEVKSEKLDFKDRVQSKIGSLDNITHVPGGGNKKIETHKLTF

| Compound | Z repl 1 | Z Repl 2 | av Z [1] | av puncta (average of raw data 1 and 2) | raw data 1 (puncta) | raw data 2 (puncta) | av Z [2] | av puncta [3] | AvZ (average z score of seeding, SDs from the mean level of seeding) | raw data 1 (raw puncta) | raw data 2 (raw puncta) | av Z [4] |
| --- | --- | --- | --- | --- | --- | --- | --- | --- | --- | --- | --- | --- |
| O=C1c2c(O)cc(O)cc2O[C@H](c2ccc(O)cc2)[C@H]1O [Dihydrokaempferol] | -0.147 | 0.084 | -0.031 | 19127 | 24585.9 | 13668.2 | – | – | – | – | – | – |
| O=c1c(O[C@@H]2O[C@H](CO)[C@@H](O)[C@H](O)[C@H]2O)c(-c2ccc(O)c(O)c2)oc2cc(O[C@@H]3O[C@H](CO[C@@H]4O[C@H](CO)[C@@H](O)[C@H](O)[C@H]4O)[C@@H](O)[C@H](O)[C@H]3O)cc(O)c12 | -0.562 | -0.434 | – | – | 19599.6 | 8130.05 | -0.498 | 13864.9 | – | – | – | – |
| O=C(O)c1ccc(O)c(O)c1O [2,3,4-Trihydroxybenzoic acid] | -0.335 | -0.39 | – | – | – | – | – | 15461.1 | -0.363 | 22324.8 | 8597.33 | – |
| CC(=O)OCCc1ccc(O)c(O)c1 [Hydroxytyrosol acetate] | -0.003 | -1.049 | – | – | 26308.5 | 1565.31 | – | 13936.9 | – | – | – | – |
| CC(C(=O)c1ccc(O)cc1O)c1ccc(O)cc1 (stereo not shown) [O-Desmethylangolensin] | 0.135 | -0.221 | -0.043 | 19189.1 | 27969 | 10409.2 | – | – | – | – | – | – |
| COc1cc2c(=O)c(-c3ccc(O)cc3)coc2cc1O[C@@H]1O[C@H](COC(C)=O)[C@@H](O)[C@H](O)[C@H]1O [6''-O-Acetylglycitin] | -0.368 | -0.234 | – | – | – | – | -0.301 | 16095.7 | – | 21928.1 | 10263.4 | – |
| COc1c2ccoc2nc2c(O)cccc12 [Robustine] | 0.29 | 0.728 | – | 25188.7 | 29833.7 | 20543.7 | – | – | – | – | – | 0.509 |
| O=c1ccc2cc(O)c(O)cc2o1 [Esculetin] | -0.338 | -0.78 | – | – | 22288.3 | 4440.46 | -0.559 | 13364.4 | – | – | – | – |
| COc1cc2ccc(=O)oc2c(OC)c1O [Isofraxidin] | 0.211 | 0.742 | – | 24789.8 | 28887.4 | 20692.2 | – | – | – | – | – | 0.477 |
| Oc1cc(O)c2ccc(-c3ccc(O)c(O)c3)[o+]c2c1.[Cl-] [Luteolinidin (chloride)] | -0.952 | -1.154 | – | 7678.85 | 14921.6 | 436.094 | -1.053 | – | – | – | – | – |
| CC(C)(O)CCc1c(O)cc(O)c2c(=O)c(O)c(-c3ccc(O)cc3)oc12 [Noricaritin] | 0.56 | 0.239 | – | 24195.2 | 33071.8 | 15318.5 | – | – | 0.399 | – | – | – |
| O=C(O)c1ccc(O)cc1O [2,4-Dihydroxybenzoic acid] | 0.635 | -0.383 | – | 21320.5 | 33969.7 | 8671.41 | – | – | 0.126 | – | – | – |
| O=c1cc(-c2ccccc2)oc2cccc(O)c12 [5-Hydroxyflavone] | -1.378 | -0.72 | – | 7440.82 | 9800.36 | 5081.28 | -1.049 | – | – | – | – | – |
| CC[C@H]1CN2CCc3cc(OC)c(OC)cc3[C@@H]2C[C@@H]1C[C@H]1NCCc2cc(O)c(OC)cc21.Cl.Cl [Cephaeline (dihydrochloride)] | -0.202 | -0.66 | – | – | – | – | -0.431 | 14823.1 | – | 23925.6 | 5720.59 | – |
| COc1cc(CC(C)C(C)Cc2ccc(O)c(OC)c2)ccc1O (stereo not shown) [Dihydroguaiaretic acid] | -0.958 | -0.625 | – | 10465.9 | 14843.2 | 6088.67 | -0.792 | – | – | – | – | – |
| COc1ccc(-c2cc(=O)c3c(O)c(OC)c(O)cc3o2)cc1 [Pectolinarigenin] | -0.106 | 0.876 | – | 23601.4 | 25077.3 | 22125.4 | – | – | – | – | – | 0.385 |
| CCC1(c2ccc(O)cc2)NC(=O)N(C)C1=O (stereo not shown) [4-Hydroxymephenytoin] | -0.081 | -0.754 | – | – | – | – | -0.418 | 15044.9 | – | 25375.4 | 4714.28 | – |
| O=C(O[C@@H]1Cc2c(O)cc(O)cc2O[C@H]1c1ccc(O)c(O)c1)c1cc(O)c(O)c(O)c1 [(-)-Catechin gallate] | -0.615 | -1.07 | – | 10148.5 | 18961.3 | 1335.66 | -0.843 | – | – | – | – | – |

| Compound | Z repl 1 | Z Repl 2 | av Z [1] | av puncta (average of raw data 1 and 2) | raw data 1 (puncta) | raw data 2 (puncta) | av Z [2] | av puncta [3] | AvZ (average z score of seeding, SDs from the mean level of seeding) | raw data 1 (raw puncta) | raw data 2 (raw puncta) | av Z [4] |
| --- | --- | --- | --- | --- | --- | --- | --- | --- | --- | --- | --- | --- |
| O=C(/C=C/c1ccc(O)cc1)c1ccccc1 [4-Hydroxychalcone] | -0.784 | -0.093 | – | – | – | – | -0.439 | 14353.6 | – | 16932.9 | 11774.3 | – |
| C=C(C)[C@H](CC=C(C)C)Cc1c(O)cc(OC)c2c1O[C@H](c1ccc(O)cc1O)[C@@H](O)C2=O [Kushenol I] | 0.564 | -0.398 | 0.083 | 20816.6 | 33117.8 | 8515.32 | – | – | – | – | – | – |
| CC(=O)Cc1cc(=O)c2c(C)cc(O)c([C@@H]3O[C@H](CO)[C@@H](O)[C@H](O)[C@H]3O)c2o1 [Aloesin] | 0.457 | -0.177 | – | 21354.9 | 31839.2 | 10870.5 | – | – | – | – | – | 0.14 |
| O=C(CCc1ccc(O)cc1)c1c(O)cc(O)cc1O[C@@H]1O[C@H](CO)[C@@H](O)[C@H](O)[C@H]1O [Phlorizin] | -0.297 | -0.278 | – | – | – | – | -0.288 | 16285.7 | – | 22779.3 | 9792.07 | – |
| COc1cc(C(=O)O)cc(O)c1O [3-O-Methylgallic acid] | -1.04 | -0.532 | – | 10472 | 13858.8 | 7085.12 | – | – | -0.786 | – | – | – |
| COc1cc2ccc(=O)oc2c(O[C@@H]2O[C@H](CO)[C@@H](O)[C@H](O)[C@H]2O)c1O [Fraxin] | 0.183 | -0.668 | – | – | – | – | -0.243 | 17088 | – | 28547.2 | 5628.78 | – |
| Punicalagin | -2.185 | -1.19 | – | 87.672 | 119.783 | 55.562 | -1.687 | – | – | – | – | – |
| CC(=O)c1cc2c(CO)cc(O)cc2oc1=O [Armillarisin A] | -0.702 | 0.126 | – | – | – | – | -0.288 | 16013.9 | – | 17917.5 | 14110.3 | – |
| CC(C)=CCc1c(-c2ccc(O)cc2O)oc2c3c(cc(O)c2c1=O)OC(C)(C)C=C3 [Morusin] | -0.601 | -0.306 | – | – | – | – | -0.454 | 14314.5 | – | 19129.3 | 9499.74 | – |
| N[C@@H](Cc1c[nH]c2ccc(O)cc12)C(=O)O [L-5-Hydroxytryptophan] | 0.279 | -0.269 | – | 19792.1 | 29696.2 | 9887.95 | – | – | 0.005 | – | – | – |
| CC(=O)CCc1ccc(O)cc1 [Raspberry ketone] | 0.027 | -0.77 | – | – | – | – | – | 15608.2 | -0.371 | 26674.5 | 4541.81 | – |
| COc1cc(OC)c(CCC(=O)c2ccc(O)cc2)c(OC)c1 [Loureirin B] | 1.015 | 0.248 | – | 26974.5 | 38536.8 | 15412.2 | – | – | – | – | – | 0.631 |
| O=C(O[C@@H]1Cc2c(O)cc(O)cc2O[C@@H]1c1cc(O)c(O)c(O)c1)c1cc(O)c(O)c(O)c1 [(-)-Epigallocatechin Gallate] | -2.044 | – | – | 1025.27 | 1812.01 | 238.519 | -1.608 | – | – | – | – | – |
| Oc1ccc2c(c1)OCO2 [Sesamol] | -0.018 | -1.03 | – | – | 26133.2 | 1763.04 | -0.524 | 13948.1 | – | – | – | – |
| COc1ccc(-c2oc3c(CC=C(C)C)c(O)cc(O)c3c(=O)c2O)cc1 [Icaritin] | 0.42 | 0.629 | – | 25439.4 | 31392.8 | 19486 | – | – | – | – | – | 0.525 |
| Myricitrin | -0.619 | -1.178 | – | 9550.45 | 18913 | 187.899 | -0.899 | – | – | – | – | – |
| COC(=O)/C=C/c1ccc(O)c(O)c1 [Methyl caffeate] | -0.415 | -0.284 | – | – | – | – | – | 15550.1 | -0.349 | 21362.3 | 9737.92 | – |
